ChEMBL document CHEMBL1144335, “7alpha,11beta-Dimethyl-19-nortestosterone: a potent and selective androgen response modulator with prostate-sparing properties” (Bioorg Med Chem Lett, 2005)

Columns and labels:
[1] = target: Estrogen receptor (Rattus norvegicus) (UniProt P06211+Q62986); assay: Binding affinity for estrogen receptor in rat (n=3)
[2] = target: T1, Androgen receptor (Rattus norvegicus) (UniProt P15207); assay: Relative binding affinity for rat androgen receptor compared to dihydrotestosterone (100) (n=4)
T1 sequence (whole entry): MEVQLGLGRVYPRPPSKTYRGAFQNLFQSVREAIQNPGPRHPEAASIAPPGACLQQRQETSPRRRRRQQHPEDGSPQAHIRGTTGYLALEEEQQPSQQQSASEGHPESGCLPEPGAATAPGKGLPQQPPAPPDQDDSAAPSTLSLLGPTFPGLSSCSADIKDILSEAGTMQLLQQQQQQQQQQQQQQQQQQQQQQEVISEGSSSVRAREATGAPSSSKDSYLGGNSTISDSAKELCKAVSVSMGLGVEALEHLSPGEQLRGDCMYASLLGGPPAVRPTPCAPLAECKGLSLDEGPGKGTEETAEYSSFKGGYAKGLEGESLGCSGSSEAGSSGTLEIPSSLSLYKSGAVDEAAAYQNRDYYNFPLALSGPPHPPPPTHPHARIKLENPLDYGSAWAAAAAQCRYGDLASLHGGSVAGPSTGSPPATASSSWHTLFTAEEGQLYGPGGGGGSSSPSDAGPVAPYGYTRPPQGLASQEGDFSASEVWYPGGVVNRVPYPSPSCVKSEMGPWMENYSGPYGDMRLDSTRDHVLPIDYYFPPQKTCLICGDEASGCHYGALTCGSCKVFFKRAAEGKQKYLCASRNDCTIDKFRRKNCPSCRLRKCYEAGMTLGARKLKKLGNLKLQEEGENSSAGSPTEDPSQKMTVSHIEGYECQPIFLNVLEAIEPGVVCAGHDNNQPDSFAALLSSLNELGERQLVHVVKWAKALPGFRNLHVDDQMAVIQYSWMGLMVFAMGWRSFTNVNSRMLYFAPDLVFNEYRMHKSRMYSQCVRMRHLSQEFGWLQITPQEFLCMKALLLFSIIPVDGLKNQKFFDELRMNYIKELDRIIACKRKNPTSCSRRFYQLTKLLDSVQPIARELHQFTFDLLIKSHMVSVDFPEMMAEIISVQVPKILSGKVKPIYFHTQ

Row | SMILES | Binding affinity [1] | Binding affinity [2]
1 | C[C@@H]1CC2=CC(=O)CCC2C2C1C1CC[C@H](O)[C@@]1(C)C[C@@H]2C (stereo partly drawn) | 0.6 | 194
2 | C[C@H]1C[C@@]2(C)C(CC[C@@H]2O)C2C1C1CCC(=O)C=C1C[C@@H]2C (stereo partly drawn) | – | 22
